Reference: US9540362B2, “Sphingosine-1-phosphate receptor agonists, methods of preparing the same, and pharmaceutical compositions containing the same as an active agent” (LG LIFE SCIENCES LTD., priority 2013, dated 2017)
Structures can show the parent of a compound that is named as a salt.

Experiments:
[1] = biological target: human sphingosine-1-phosphate 1 receptor (S1P1 receptor) (Homo sapiens, UniProt P21453); assay: Ca2+ inducing ability using CHO cells overexpressing human S1P1 receptor (Calcium 5 assay kit); assay type: cell-based; details: CHO cells overexpressing human S1P1, calcium RFU; S1P 1 μM = 100%
Source text: Evaluation of Ca^2+ inducing ability of test compound using a cell line expressing human sphingosine-1-phosphate
CHO (Chinese hamster ovary) cells which overexpress human sphingosine-1-phosphate 1 receptor (S1P1 receptor) that react with sphingosine-1-phosphate (S1P) are used for a functional test method wherein an increase of calcium indicates a therapeutic efficacy of an agonist compound.
To prepare CHO cells which overexpress human S1P1˜S1P5, human clones for each subtype having HA at the N terminal residue (S1P1: EDG010TN00, S1P2: EDG020TN00, S1P3: EDG030TN00, S1P4: EDG060TN00, S1P5: EDG080TN00) were purchased from the Missouri S&T cDNA Resource Center and co-transfected with G-protein alpha subunit (G-alpha-16) into CHO-K1 cells.
A calcium measurement kit (Calcium 5 assay kit, Molecular Devices) was used to select an agonist compound. The principle of calcium measurement is that calcium-sensitive dyes are applied to cells, they enter into the cytoplasm of the cells during incubation, and when a ligand binds to a certain receptor to release calcium into the cytoplasm, the dyes bind to said calcium to induce fluorescence which is measured. This test method can sensitively measure only the intracellular calcium concentration change because any change that may occur outside the cells is masked by a masking dye.
The experimental procedure was as follows. One day before calcium measurement, CHO cells overexpressing hS1P1˜hS1P5 were dispensed into a 96-well plate (bottom clear black well) in 3×10^4 cells per well and cultured at 37° C. under 5% carbon dioxide condition for one day. 100 μl of calcium dyes mixed with Assay Buffer (1×HBSS, 20 mM HEPES, 2.5 mM probenecid, pH 7.4) were dispensed into culture solution in well and cultured at 37° C. for one hour. Test compounds were dissolved in 100% DMSO to prepare 1 μl solution per each concentration, and each solution was mixed with 199 μl Assay Buffer such that the concentrations were 50, 5, 0.5, 0.05, 0.005 and 0.0005 μM. The plate cultured with the calcium dyes was put into FlaxstationII (Molecular Devices), and the prepared test compounds (the final concentrations of the test compounds: 10, 1, 0.1, 0.01, 0.001 and 0.0001 μM) were programmed to be automatically inoculated in 50 μl per each well. For a total of 90 seconds, RFU (relative fluorescence unit) values were measured. The value of Reference (S1P substance 1 μM) deducting the blank value was set as 100%, and EC50 values of the test compounds were calculated by prism.

lymphocytes in blood = assay: Rat peripheral blood lymphocyte decrease; assay type: in vivo; details: male SD rat, 6 hours after administration
Description: Evaluation of Rat Peripheral Blood Lymphocyte Decrease
Lymphocyte decrease in blood by S1P1 agonist was evaluated using a male SD rat. After adapting a rat weighing about 250 g to a breeding facility for one week, a test compound was administered to it once. At 3 hours, 6 hours, 24 hours and 48 hours after administration, blood was taken from a tail caudal vein, and about 200 μl of the blood was put into an EDTA tube while preventing it from clotting, followed by measurement of the number of lymphocytes in blood. The number of lymphocytes was analyzed by a hematological examination device, Hemoanalyzer. The doses of the test compounds were 3 mg/kg for Example 52, 94, 108, 117, 142, 145, 146, 148 and 149 compounds, and 1 mg/kg for Example 150, 151, 153, 154, 155, 158, 159 and 161 compounds.

human sphingosine-1-phosphate 1 receptor (S1P1 receptor), sequence (P21453 whole entry): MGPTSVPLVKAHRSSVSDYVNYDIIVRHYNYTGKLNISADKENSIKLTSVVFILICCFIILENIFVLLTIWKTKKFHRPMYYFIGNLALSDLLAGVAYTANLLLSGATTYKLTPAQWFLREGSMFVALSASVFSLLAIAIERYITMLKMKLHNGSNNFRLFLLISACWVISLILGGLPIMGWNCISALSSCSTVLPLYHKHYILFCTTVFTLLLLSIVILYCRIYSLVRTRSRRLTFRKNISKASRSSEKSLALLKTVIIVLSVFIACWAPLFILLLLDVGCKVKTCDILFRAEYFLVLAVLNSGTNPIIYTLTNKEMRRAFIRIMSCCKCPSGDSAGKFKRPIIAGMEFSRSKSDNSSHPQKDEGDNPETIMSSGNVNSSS

| SMILES | EC50 [1] [nM] | Lymphocyte count (degree of decrease in lymphocyte number) (lymphocytes in blood; administered once, 3 mg/kg) [%] | Lymphocyte count (degree of decrease in lymphocyte number) (lymphocytes in blood; dose of the reference not stated) [%] |
| --- | --- | --- | --- |
| Cc1cc(CCC(=O)O)ccc1-c1noc(-c2ccc3c(ccn3C(C)C)c2)n1 [Example 1, 3-{4-[5-(1-isopropyl-1H-indol-5-yl)-[1,2,4]oxadiazol-3-yl]-3-methyl-phenyl}-propanoic acid] | 5 | – | – |
| CC(C)n1ccc2cc(-c3nc(-c4ccc(CN5CC(C(=O)O)C5)cc4)no3)ccc21 [Example 2, 1-{4-[5-(1-isopropyl-1H-indol-5-yl)-[1,2,4]oxadiazol-3-yl]-benzyl}-azetidine-3-carboxylic acid] | 25 | – | – |
| Cc1cc(CN2CC(C(=O)O)C2)ccc1-c1noc(-c2ccc3c(c2)c(Cl)cn3C(C)C)n1 [Example 3, 1-{4-[5-(3-chloro-1-isopropyl-1H-indol-5-yl)-[1,2,4]oxadiazol-3-yl]-3-methyl-benzyl}-azetidine-3-carboxylic acid] | 23 | – | – |
| Cc1cc(CN2CC(C(=O)O)C2)ccc1-c1noc(-c2ccc3c(c2)c(C#N)cn3C(C)C)n1 [Example 4, 1-{4-[5-(3-cyano-1-isopropyl-1H-indol-5-yl)-[1,2,4]oxadiazol-3-yl]-3-methyl-benzyl}-azetidine-3-carboxylic acid] | 23 | – | – |
| Cc1cc(CN2CC(C(=O)O)C2)ccc1-c1noc(-c2ccc3c(ccn3C(C)C)c2)n1 [Example 5, 1-{4-[5-(1-isopropyl-1H-indol-5-yl)-[1,2,4]oxadiazol-3-yl]-3-methyl-benzyl}-azetidine-3-carboxylic acid] | 14 | – | – |
| Cc1c(CN2CC(C(=O)O)C2)cccc1-c1noc(-c2ccc3c(ccn3C(C)C)c2)n1 [Example 26, 1-{3-[5-(1-isopropyl-1H-indol-5-yl)-[1,2,4]oxadiazol-3-yl]-2-methyl-benzyl}-azetidine-3-carboxylic acid] | 2 | – | – |
| CC(C)n1ccc2cc(-c3nc(-c4cccc5c4CCCC5NS(N)(=O)=O)no3)ccc21 (stereo not shown) [Example 38, N-{5-[5-(1-isopropyl-1H-indol-5-yl)-[1,2,4]oxadiazol-3-yl]-1,2,3,4-tetrahydro-naphthalen-1-yl}-sulfamide] | 50 | – | – |
| Cc1cc(CCC(=O)O)ccc1-c1noc(-c2ccc3c(c2)c(Cl)cn3C(C)C)n1 [Example 52, 3-{4-[5-(3-chloro-1-isopropyl-1H-indol-5-yl)-[1,2,4]oxadiazol-3-yl]-3-methyl-phenyl}-propanoic acid] | 10 | −80 | – |
| Cc1c(-c2noc(-c3ccc4c(c3)c(Cl)cn4C(C)C)n2)ccc2c1CCN(CC(=O)O)C2 [Example 58, {6-[5-(3-chloro-1-isopropyl-1H-indol-5-yl)-[1,2,4]oxadiazol-3-yl]-5-methyl-3,4-dihydro-1H-isoquinolin-2-yl}-acetic acid, hydrochloride] | 20 | – | – |
| Cc1c(-c2noc(-c3ccc4c(cnn4C(C)C)c3)n2)ccc2c1CCN(CC(=O)O)C2 [Example 85, {6-[5-(1-isopropyl-1H-indazol-5-yl)-[1,2,4]oxadiazol-3-yl]-5-methyl-3,4-dihydro-1H-isoquinolin-2-yl}-acetic acid, trifluoroacetate] | 10 | – | – |
| Cc1c(-c2noc(-c3ccc4c(c3)c(Cl)nn4C(C)C)n2)ccc2c1CCN(CCC(=O)O)C2 [Example 94, 3-{6-[5-(3-chloro-1-isopropyl-1H-indazol-5-yl)-[1,2,4]oxadiazol-3-yl]-5-methyl-3,4-dihydro-1H-isoquinolin-2-yl}-propanoic acid, trifluoroacetate] | 6 | −82 | – |
| Cc1c(-c2noc(-c3ccc4nn(C(C)C)cc4c3)n2)ccc2c1CCN(CC(=O)O)C2 [Example 97, {6-[5-(2-isopropyl-2H-indazol-5-yl)-[1,2,4]oxadiazol-3-yl]-5-methyl-3,4-dihydro-1H-isoquinolin-2-yl}-acetic acid, trifluoroacetate] | 50 | – | – |
| CC(C)n1nc(Cl)c2cc(-c3nc(-c4cccc5c4CCN(S(N)(=O)=O)C5)no3)ccc21 [Example 108, 5-[5-(3-chloro-1-isopropyl-1H-indazol-5-yl)-[1,2,4]oxadiazol-3-yl]-3,4-dihydro-1H-isoquinoline-2-sulfonic acid amide] | 20 | −70 | – |
| Cc1c(-c2noc(-c3ccc4c(c3)c(C)nn4C(C)C)n2)ccc2c1CCN(CC(=O)O)C2 [Example 117, {6-[5-(1-isopropyl-3-methyl-1H-indazol-5-yl)-[1,2,4]oxadiazol-3-yl]-5-methyl-3,4-dihydro-1H-isoquinolin-2-yl}-acetic acid, trifluoroacetate] | 3 | −80 | – |
| Cc1cc(C(C)CC(=O)O)ccc1-c1noc(-c2ccc3c(c2)c(Cl)nn3C(C)C)n1 (stereo not shown) [Example 129, 3-{4-[5-(3-chloro-1-isopropyl-1H-indazol-5-yl)-[1,2,4]oxadiazol-3-yl]-3-methyl-phenyl}-butyric acid, trifluoroacetate] | 50 | – | – |
| CC(C)n1nc(Cl)c2cc(COc3ccc4cc(CN5CC(C(=O)O)C5)ccc4c3)ccc21 [Example 142, 1-[6-(3-chloro-1-isopropyl-1H-indazol-5-ylmethoxy)-naphthalen-2-ylmethyl]-azetidine-3-carboxylic acid] | 7 | −80 | – |
| CC1=C(CN(C)CC(=O)O)CCc2cc(OCc3ccc4c(c3)c(Cl)nn4C(C)C)ccc21 [Example 145, {[6-(3-chloro-1-isopropyl-1H-indazol-5-ylmethoxy)-1-methyl-3,4-dihydro-naphthalen-2-ylmethyl]-methyl-amino}-acetic acid] | 9 | −48 | – |
| CC1=C(CN2CC(C(=O)O)C2)CCc2cc(OCc3ccc4c(c3)c(Cl)nn4C(C)C)ccc21 [Example 146, 1-[6-(3-chloro-1-isopropyl-1H-indazol-5-ylmethoxy)-1-methyl-3,4-dihydro-naphthalen-2-ylmethyl]-azetidine-3-carboxylic acid] | 5 | −78 | – |
| CC1=C(CN2CCC(C(=O)O)CC2)CCc2cc(OCc3ccc4c(c3)c(Cl)nn4C(C)C)ccc21 [Example 148, 1-[6-(3-chloro-1-isopropyl-1H-indazol-5-ylmethoxy)-1-methyl-3,4-dihydro-naphthalen-2-ylmethyl]-piperidine-4-carboxylic acid] | 19 | −81 | – |
| CC1=C(CN2CCCC(C(=O)O)CC2)CCc2cc(OCc3ccc4c(c3)c(Cl)nn4C(C)C)ccc21 (stereo not shown) [Example 149, 1-[6-(3-chloro-1-isopropyl-1H-indazol-5-ylmethoxy)-1-methyl-3,4-dihydro-naphthalen-2-ylmethyl]-azepane-4-carboxylic acid] | 19 | −80 | – |
| CCC(C)n1nc(Cl)c2cc(COc3ccc4c(c3)CCC(CN3CCC(C(=O)O)CC3)=C4Cl)cnc21 (stereo not shown) [Example 160, 1-[6-(1-sec-butyl-3-chloro-1H-pyrazolo[3,4-b]pyridin-5-ylmethoxy)-1-chloro-3,4-dihydro-naphthalen-2-ylmethyl]-piperidine-4-carboxylic acid] | 19 | – | – |
| CCCCCCCCc1ccc(CCC(N)(CO)CO)cc1 [FTY-720, Fingolimod, reference compound] | – | – | −80 |
